Values after ≈ are worked out from the molar mass of the structure shown. Read-outs that look alike come from different tables or passages of the source.
What was measured:
HSV- I = test: HSV antiviral (ELISA) assay; assay type: cell-based; conditions: read-out: IC50 (ug/ml) HSV
In short: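 Vero cells in DMEM with 2% FBS treated with compound 30 min before HSV-1 infection (MOI 0.006), then incubated ~24 h at 37°C. Viral replication measured by ELISA against glycoprotein D with β-galactosidase-linked secondary and fluorogenic substrate (ex 365/em 450 nm); IC50 relative to untreated fluorescence.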

VZV strain Ellen = test: VZV antiviral (ELISA) assay; assay type: cell-based
In short: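 HFF cells infected with VZV Ellen at multiplicity below 0.1 overnight, then mixed infected/uninfected cells seeded with compound in DMEM/2% FBS and incubated three days at 37°C, 5% CO2.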

[1] = system: HCMV recombinant mutant virus whose genome contains the prokaryotic beta-glucuronidase gene; test: microbe, parasite or virus in culture; assay type: cell-based, human cytomegalovirus; conditions: Human betaherpesvirus 5, Fibroblast
In short: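 Human foreskin fibroblasts infected with HCMV recombinant carrying beta-glucuronidase under a viral promoter (e.g. RV145) in presence of compound. At 96 h post-infection, lysates assayed for beta-glucuronidase by colorimetric or fluorogenic substrate as replication readout; IC50 estimated from varying compound amounts.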

[2] = Human alphaherpesvirus 3, HFF, read-out: % inhibition 10 ug/ml VZV
[3] = Human alphaherpesvirus 3, HFF, read-out: IC50 (ug/ml) VZV
[4] = read-out: IC50 ug/ml HCMV, HCMV, human foreskin fibroblasts
[5] = Human alphaherpesvirus 3, read-out: % inhibition 10 ug/ml VZV, 10 ug/ml, VZV strain Ellen, HFF cells, ELISA
[6] = Human alphaherpesvirus 3, VZV strain Ellen, HFF cells, ELISA, read-out: IC50 (ug/ml) VZV

| SMILES | IC50 (HSV- I; HSV- I, Vero cells, ELISA) | inhibition at 10 µg/mL (VZV strain Ellen; [2]) | IC50 (VZV strain Ellen; [3]) | IC50 [1, 4] | IC50 (HSV- I; Vero) | IC50 (VZV strain Ellen; Human alphaherpesvirus 3, HFF, read-out: IC50 (ug/ml) VZV, VZV strain Ellen, HFF cells, ELISA) | inhibition at 10 µg/mL (VZV strain Ellen; [5]) | IC50 (VZV strain Ellen; [6]) | IC50 ([1]; read-out: IC50 ug/ml HCMV) |
| --- | --- | --- | --- | --- | --- | --- | --- | --- | --- |
| CCCCSc1ccc(NC(=S)Nc2ccc(NC(=O)c3ccccc3F)cc2)cc1Cl [Example 387, N-{4-[3-(4-Butylsulfanyl-3-chloro-phenyl)-thioureido]-phenyl}-2-fluoro-benzamide] | > 10 µg/mL | 26% | > 10 µg/mL | > 10 µg/mL | – | – | – | – | – |
| C[S+]([O-])c1ccc(NC(=S)Nc2ccc(NC(=O)c3c(F)cccc3F)cc2)cc1Cl (stereo not shown) [Example 392, N-{4-[3-(3-Chloro-4-methanesulfinyl-phenyl)-thioureido]-phenyl}-2,6-difluoro-benzamide] | > 10 µg/mL | 92% | 2 µg/mL (≈ 4.17 µM) | 0.5 µg/mL (≈ 1.04 µM) | – | – | – | – | – |
| CS(=O)(=O)c1ccc(NC(=S)Nc2ccc(NC(=O)c3c(F)cccc3F)cc2)cc1Cl [Example 393, N-{4-[3-(3-Chloro-4-methanesulfonyl-phenyl)-thioureido]-phenyl}-2,6-difluoro-benzamide] | > 10 µg/mL | 62% | > 10 µg/mL | 0.5 µg/mL (≈ 1.01 µM) | – | – | – | – | – |
| Cc1ccc(NC(=S)Nc2ccc(NC(=O)c3ccccc3F)c(C)c2)cc1Cl [Example 395, N-{4-[3-(3-Chloro-4-methyl-phenyl)-thioureido]-2-methyl-phenyl}-2-fluoro-benzamide] | 0.2 µg/mL (≈ 0.467 µM) | 64% | > 10 µg/mL | 3 µg/mL (≈ 7.01 µM) | – | – | – | – | – |
| CC(=O)Nc1ccc(NC(=S)Nc2ccc(NC(=O)c3ccccc3F)cc2)cc1Cl [Example 397, N-{4-[3-(4-Acetylamino-3-chloro-phenyl)-thioureido]-phenyl}-2-fluoro-benzamide] | 5 µg/mL (≈ 10.9 µM) | 35% | > 10 µg/mL | 10 µg/mL (≈ 21.9 µM) | – | – | – | – | – |
| CCOC(=O)Nc1ccc(NC(=S)Nc2ccc(NC(=O)c3ccccc3F)cc2)cc1Cl [Example 399, (2-Chloro-4-{3-[4-(2-fluoro-benzoylamino)-phenyl]-thioureido}-phenyl)-carbamic acid ethyl ester] | – | 59% | – | 1.5 µg/mL (≈ 3.08 µM) | > 10 µg/mL | > 10 µg/mL | – | – | – |
| Nc1ccc(NC(=S)Nc2ccc(NC(=O)c3ccccc3F)cc2)cc1Cl [Example 404, N-{4-[3-(4-Amino-3-chloro-phenyl)-thioureido]-phenyl}-2-fluoro-benzamide] | 0.4 µg/mL (≈ 0.964 µM) | 15% | > 10 µg/mL | 8 µg/mL (≈ 19.3 µM) | – | – | – | – | – |
| O=C(CN1CCSCC1)Nc1ccc(NC(=S)Nc2ccc(NC(=O)c3ccccc3F)cc2)cc1Cl [Example 407, N-(4-{3-[3-Chloro-4-(2-thiomorpholin-4-yl-acetylamino)-phenyl]-thioureido}-phenyl)-2-fluoro-benzamide] | 4 µg/mL (≈ 7.17 µM) | 87% | 0.7 µg/mL (≈ 1.25 µM) | > 10 µg/mL | – | – | – | – | – |
| CCN(CC)CC(=O)Nc1ccc(NC(=S)Nc2ccc(NC(=O)c3ccccc3F)cc2)cc1Cl [Example 414, N-(4-{3-[3-Chloro-4-(2-diethylamino-acetylamino)-phenyl]-thioureido}-phenyl)-2-fluoro-benzamide] | 6 µg/mL (≈ 11.4 µM) | 70% | > 15 µg/mL | > 10 µg/mL | – | – | – | – | – |
| O=C(CN1CCCC1)Nc1ccc(NC(=S)Nc2ccc(NC(=O)c3ccccc3F)cc2)cc1Cl [Example 417, N-(4-{3-[3-Chloro-4-(2-pyrrolidin-1-yl-acetylamino)-phenyl]-thioureido}-phenyl)-2-fluoro-benzamide] | 6 µg/mL (≈ 11.4 µM) | 15% | > 10 µg/mL | > 10 µg/mL | – | – | – | – | – |
| O=C(CN1CCCCCC1)Nc1ccc(NC(=S)Nc2ccc(NC(=O)c3ccccc3F)cc2)cc1Cl [Example 423, N-(4-{3-[4-(2-Azepan-1-yl-acetylamino)-3-chloro-phenyl]-thioureido}-phenyl)-2-fluoro-benzamide] | 4 µg/mL (≈ 7.22 µM) | 87% | 0.9 µg/mL (≈ 1.62 µM) | 1 µg/mL (≈ 1.8 µM) | – | – | – | – | – |
| CC1CCCCN1CC(=O)Nc1ccc(NC(=S)Nc2ccc(NC(=O)c3ccccc3F)cc2)cc1Cl (stereo not shown) [Example 425, N-[4-(3-{3-Chloro-4-[2-(2-methyl-piperidin-1-yl)-acetylamino]-phenyl}-thioureido)-phenyl]-2-fluoro-benzamide] | – | 103% | > 7.5 µg/mL | 0.5 µg/mL (≈ 0.902 µM) | 3 µg/mL (≈ 5.41 µM) | – | – | – | – |
| Cc1cccc(NC(=S)Nc2ccc(NC(=O)c3ccccc3F)cc2)c1 [Example 432, 2-Fluoro-N-[4-(3-m-tolyl-thioureido)-phenyl]-benzamide] | 1.6 µg/mL (≈ 4.22 µM) | – | – | – | – | – | 0% | > 10 µg/mL | 10 µg/mL (≈ 26.4 µM) |
| O=C(Nc1ccc(NC(=S)Nc2cccc(C(F)(F)F)c2)cc1)c1ccccc1F [Example 433, 2-Fluoro-N-{4-[3-(3-trifluoromethyl-phenyl)-thioureido]-phenyl}-benzamide] | > 10 µg/mL | – | – | – | – | – | 0% | > 10 µg/mL | > 10 µg/mL |
| Nc1cccc(NC(=S)Nc2ccc(NC(=O)c3ccccc3F)cc2)c1 [Example 434, N-{4-[3-(3-Amino-phenyl)-thioureido]-phenyl}-2-fluoro-benzamide] | 10 µg/mL (≈ 26.3 µM) | – | – | – | – | – | 0% | > 10 µg/mL | 5 µg/mL (≈ 13.1 µM) |
| Nc1ccc(Cl)cc1NC(=S)Nc1ccc(NC(=O)c2ccccc2F)cc1 [Example 437, N-{4-[3-(2-Amino-5-chloro-phenyl)-thioureido]-phenyl}-2-fluoro-benzamide] | – | 0% | 8 µg/mL (≈ 19.3 µM) | > 10 µg/mL | 0.05 µg/mL (≈ 0.121 µM) | – | – | – | – |
| Nc1cc(Cl)cc(NC(=S)Nc2ccc(NC(=O)c3ccccc3F)cc2)c1 [Example 442, N-{4-[3-(3-Amino-5-chloro-phenyl)-thioureido]-phenyl}-2-fluoro-benzamide] | 1 µg/mL (≈ 2.41 µM) | 81% | 8 µg/mL (≈ 19.3 µM) | 2 µg/mL (≈ 4.82 µM) | – | – | – | – | – |
| CC(O)c1cccc(NC(=S)Nc2ccc(NC(=O)c3ccccc3F)cc2)c1 (stereo not shown) [Example 448, 2-Fluoro-N-(4-{3-[3-(1-hydroxy-ethyl)-phenyl]-thioureido}-phenyl)-benzamide] | > 10 µg/mL | – | – | – | – | – | 0% | > 10 µg/mL | 9 µg/mL (≈ 22 µM) |
| CC(C)c1cccc(NC(=S)Nc2ccc(NC(=O)c3ccccc3F)cc2)c1 [Example 452, 2-Fluoro-N-{4-[3-(3-isopropyl-phenyl)-thioureido]-phenyl}-benzamide] | 4 µg/mL (≈ 9.82 µM) | 75% | 1 µg/mL (≈ 2.45 µM) | 2 µg/mL (≈ 4.91 µM) | – | – | – | – | – |
| CN(C)c1cccc(NC(=S)Nc2ccc(NC(=O)c3ccccc3F)cc2)c1 [Example 454, N-{4-[3-(3-Dimethylamino-phenyl)-thioureido]-phenyl}-2-fluoro-benzamide] | 1.5 µg/mL (≈ 3.67 µM) | 55% | > 10 µg/mL | 4 µg/mL (≈ 9.79 µM) | – | – | – | – | – |
| COc1cc(C)c(Cl)cc1NC(=S)Nc1ccc(NC(=O)c2ccccc2F)cc1Cl [Example 458, N-{3-Chloro-4-[3-(5-chloro-2-methoxy-4-methyl-phenyl)-thioureido]-phenyl}-2-fluoro-benzamide] | 0.06 µg/mL (≈ 0.125 µM) | 25% | > 10 µg/mL | > 10 µg/mL | – | – | – | – | – |
| Cc1ccc(NC(=S)Nc2ccc(NC(=O)c3ccccc3F)cc2Cl)cc1Cl [Example 459, N-{3-Chloro-4-[3-(3-chloro-4-methyl-phenyl)-thioureido]-phenyl}-2-fluoro-benzamide] | 0.12 µg/mL (≈ 0.268 µM) | 25% | > 10 µg/mL | > 10 µg/mL | – | – | – | – | – |

Reference: patent EP1137645B1, “ALPHA-METHYLBENZYL-CONTAINING THIOUREA INHIBITORS OF HERPES VIRUSES CONTAINING A […] GROUP” (Wyeth, priority 1998, dated 2000)
